From the supplement of paper PMC11061612

Columns and labels:
Assay in all cases: Bliss excess, mean over the matrix (fraction); higher = more synergy
[1] = tested on: A3-KAW (B-Cell Non-Hodgkin's Lymphoma)
Summary of the method: (§1)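 Cell lines in DMEM/F12 or RPMI with 10% FBS were plated in 1536-well plates, held 24 hours at 37°C, 5% CO2, then given two-drug dose matrices for 72 hours (DMSO typically 0.2%). Viability was read by CellTiter-Glo 2.0 luminescence and scaled as inhibition from 0 (vehicle wells) to 1 (blank wells). Combination Emax is the second-highest inhibition in the matrix; Bliss excess is observed combination effect minus expected EA + EB − EA·EB, EA and EB being single-agent effects.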

[2] = tested on: A549 (Lung Adenocarcinoma)
Summary of the method: as §1

[3] = tested on: BICR22 (Oral Cavity Carcinoma)
Summary of the method: as §1

[4] = tested on: CAPAN-2 (Pancreatic Carcinoma)
Summary of the method: as §1

[5] = tested on: CCK-81 (Colorectal Carcinoma)
Summary of the method: as §1

[6] = tested on: COLO-824 (Breast Carcinoma)
Summary of the method: as §1

[7] = tested on: ECC10 (Gastric Carcinoma)
Summary of the method: as §1

Hs-445 (Non-Cancerous) = tested on: Hs-445 (Non-Cancerous)
Summary of the method: as §1

[8] = tested on: JSC-1 (B-Cell Non-Hodgkin's Lymphoma)
Summary of the method: as §1

[9] = tested on: KARPAS-422 (B-Cell Non-Hodgkin's Lymphoma)
Summary of the method: as §1

LN-405 (Glioblastoma) = tested on: LN-405 (Glioblastoma)
Summary of the method: as §1

[10] = tested on: NCI-H1650 (Lung Adenocarcinoma)
Summary of the method: as §1

[11] = tested on: NCI-H1666 (Lung Adenocarcinoma)
Summary of the method: as §1

[12] = tested on: NCI-H1693 (Lung Adenocarcinoma)
Summary of the method: as §1

[13] = tested on: NCI-H2066 (Squamous Cell Lung Carcinoma)
Summary of the method: as §1

[14] = tested on: NCI-H2141 (Small Cell Lung Carcinoma)
Summary of the method: as §1

[15] = tested on: SISO (Cervical Carcinoma)
Summary of the method: as §1

[16] = tested on: SK-MES-1 (Squamous Cell Lung Carcinoma)
Summary of the method: as §1

[17] = tested on: SK-MG-1 (Low Grade Glioma)
Summary of the method: as §1

U-2-OS (Osteosarcoma) = tested on: U-2-OS (Osteosarcoma)
Summary of the method: as §1

Compound	Bliss excess [1]	Bliss excess [2]	Bliss excess [3]	Bliss excess [4]	Bliss excess [5]	Bliss excess [6]	Bliss excess [7]	Bliss excess (Hs-445 (Non-Cancerous))	Bliss excess [8]	Bliss excess [9]	Bliss excess (LN-405 (Glioblastoma))	Bliss excess [10]	Bliss excess [11]	Bliss excess [12]	Bliss excess [13]	Bliss excess [14]	Bliss excess [15]	Bliss excess [16]	Bliss excess [17]	Bliss excess (U-2-OS (Osteosarcoma))
Cn1cnc2c(F)c(Nc3ccc(Br)cc3Cl)c(C(=O)NOCCO)cc21 [Selumetinib] + C[C@@H]1COCCN1C2=NC(=NC(=C2)C3(CC3)[S@](=N)(=O)C)C4=C5C=CNC5=NC=C4 [AZD6738] (first compound max 10 µM, 7x7, partner max 10 µM)	0.061	-0.0173	-0.0834	0.0596	0.0233	-0.0111	0.0198	-0.0473	0.0244	-0.0396	-0.0448	-0.0315	-0.0124	-0.0017	0.004	-0.0666	-0.0241	-0.025	0.0158	-0.0443
CC(=O)Nc1cccc(-n2c(=O)n(C3CC3)c(=O)c3c(Nc4ccc(I)cc4F)n(C)c(=O)c(C)c32)c1 [Trametinib] + Cc1nc(-c2cn3c(n2)-c2ccc(-c4cnn(C(C)(C)C(N)=O)c4)cc2OCC3)n(C(C)C)n1 [Taselisib] (first compound max 1 µM, 7x7, partner max 10 µM)	0.173	0.0568	0.16	0.117	0.209	0.21	0.24	0.119	0.218	0.0204	0.0342	0.0443	0.0857	0.0507	0.0386	-0.0299	0.0809	0.198	0.144	0.122
CC1(C)CCC(CN2CCN(c3ccc(C(=O)NS(=O)(=O)c4ccc(NCC5CCOCC5)c([N+](=O)[O-])c4)c(Oc4cnc5[nH]ccc5c4)c3)CC2)=C(c2ccc(Cl)cc2)C1 [Venetoclax] + C1CN(CCC1(C(=O)N[C@@H](CCO)C2=CC=C(C=C2)Cl)N)C3=NC=NC4=C3C=CN4 [Capivasertib] (first compound max 1 µM, 7x7, partner max 3 µM)	-0.0468	-0.059	-0.0249	-0.0658	-0.039	0.0048	-0.0202	0.0344	-0.0613	0.0459	-0.0712	-0.0329	-0.0541	-0.0333	-0.0142	-0.0534	-0.0557	-0.044	-0.0649	-0.0414
CC1(C)CCC(CN2CCN(c3ccc(C(=O)NS(=O)(=O)c4ccc(NCC5CCOCC5)c([N+](=O)[O-])c4)c(Oc4cnc5[nH]ccc5c4)c3)CC2)=C(c2ccc(Cl)cc2)C1 [Venetoclax] + C=CCn1c(=O)c2cnc(Nc3ccc(N4CCN(C)CC4)cc3)nc2n1-c1cccc(C(C)(C)O)n1 [AZD1775] (first compound max 1 µM, partner max 1 µM)	-0.0298	-0.0366	0.0453	-0.0013	-0.066	0.0202	0.0951	0.127	-0.0281	0.0389	0.0151	-0.0298	-0.0228	-0.0281	-0.0598	0.0167	-0.0765	-0.0237	-0.0369	-0.018
CC1(C)CCC(CN2CCN(c3ccc(C(=O)NS(=O)(=O)c4ccc(NCC5CCOCC5)c([N+](=O)[O-])c4)c(Oc4cnc5[nH]ccc5c4)c3)CC2)=C(c2ccc(Cl)cc2)C1 [Venetoclax] + CCN(CCO)CCCOc1ccc2c(Nc3cc(CC(=O)Nc4cccc(F)c4)[nH]n3)ncnc2c1 [AZD2811] (first compound max 1 µM, 7x7, partner max 1 µM)	-0.0238	-0.0668	-0.0138	-0.0114	-0.0122	0.0087	0.0068	0.0894	0.0485	0.242	0.0185	0.0046	0.0171	0.0169	-0.0442	0.0609	-0.0091	-0.0139	-0.0199	-0.0188
